Measurements as given in US20090258849A1, “NITROOXY DERIVATIVES OF GLUCOCORTICOIDS” (Nicox S.A., priority 2005, published 2009).

Columns and labels:
[1] = test system: PGE2; experiment: TPA-induced increase of PGE2 in mouse ear; format: in vivo, Swiss male mice; conditions: for PGE2: ear homogenate, Mean ± S.E.M. (n = 10)
Description: (§1) A ear section of the right ear of mice were homogenized in 500 μl saline, and after centrifugation at 1,200 g for 15 min at 4° C., the PGE2 and TNF-α levels were determined by radioimmunoassay (Hoult et al., Methods Enzymol 1994) or by time-resolved fluoroimmunoassay ([…] et al., Int J. Immunopharmacol. 1995), respectively. Test compounds dissolved in the vehicle were applied topically 15 min before TPA administration.

[2] = test system: TNF-α; experiment: TPA-induced increase of TNF-α in mouse ear; format: in vivo, Swiss male mice; conditions: for TNFalpha: ear homogenate, Mean ± S.E.M. (n = 10)
Description: as §1

[3] = test system: dermal microvasculature, leukocyte/endothelial cells interaction; experiment: Intravital microscopy of skin flap in mice (vessel diameter, rolling leukocytes); format: in vivo, C57B16 male mice; design: unit not given here; conditions: 3 nmol topical
Description: C57B16 male mice will be anaesthetized by intraperitoneal injection of a mixture of 10 mg/kg xylazine (MTC Pharmaceuticals, Cambridge, Ontario, Canada) and 200 mg/kg ketamine hydrochloride (Rogar/STB, London, Ontario, Canada). […] Therefore, after anaesthesia, mice will receive an intravenous injection of a fluorescent dye, rhodamine 6G (Sigma, St. Louis, Mo., USA, 0.3 mg/kg). […] Then, a midline abdominal incision will be performed, from the diaphragm, extending to the pelvic region. The skin will carefully be separated from the underlying tissue, but remained attached laterally, so the blood supply to the skin flap remained intact. The skin flap will be extended over a viewing pedestal to expose the dermal microvasculature and secured along the edges using 4.0 sutures. The exposed dermal tissues will be superfused with a bicarbonate-buffered saline pH 7.4, to avoid tissue dehydration. The microcirculation will be observed using an inverted microscope (Nikon) with a ×20 objective lens, and rhodamine 6G allows visualization and quantification of the number of rolling and adherent leukocytes, by epi-illumination at 510-560 nm, using a 590-nm emission filter. Single unbranched venules (20-40 μm in diameter) will be selected for the study. Images of the selected venule will be recorded for […], after a 15-min equilibration period and the end of this 5-min interval was considered as time 0. Leukocyte adherence will be determined upon video playback, on 100 μm vessel length (table 4). A leukocyte will be considered adherent to the endothelium if it remained stationary for 30 s or more. Leukocyte flux will be defined as the number of leukocytes per minute moving at a velocity less than that of erythrocytes, which passed a reference point in the venule. The changes in flux of rolling leukocytes will be evaluated as differences between the number of rolling leukocytes at each interval and the basal number of rolling leukocytes (table 5).
(§2) The tested compounds were applied topically dissolved in ethanol:sterile water (1:1) and applied at a final volume of 100 μl, five minutes after irritant contact dermatitis will be induced.

[4] = test system: irritant contact dermatitis induced by benzalkonium chloride; experiment: Contact dermatitis induced by benzalkonium in mice (ear edema); format: in vivo; design: Ear edema (left ears) value: unit not given here
Description: Irritant contact dermatitis was induced by applying 5% benzalkonium chloride (100 μl per site, dissolved in olive oil:acetone, 1:5 v/v) on the dorsal aspect of the two ears. Ear diameter was measured as a parameter for edema formation, before and hourly for 6 hours after benzalkonium chloride application, using an electronic caliper. The last measurement was performed at 8-hours after dermatitis induction.
as §2
Ear edema (left ears) value for times 1 to 4 hours after irritant stimuli with benzalkonium chloride are represented in the table 3.

[5] = test system: TPA-induced ear oedema; experiment: Inhibition of TPA-induced ear oedema after topical administration; format: in vivo, male Swiss mice; conditions: TPA 2 μg/ear, topical 20 μL of 0.39 nM solution in ethanol 15 min before TPA, ear weight change; for % inhibition 3 hours post-treatment: 3 h post TPA; for % inhibition 5 hours post-treatment: 5 h post TPA
From the text: The tested compounds are: • (11β,16α)-9-fluoro-11-hydroxy-16,17-[1-methylethylidene bis(oxy)]-21-[1-oxo-[4-(nitrooxymethyl)benzoxy]]pregna-1,4-diene-3,20-dione, prepared as described in example 1; • Triamcinolone acetonide that is the reference compound for the compound of example 1; • (11β)-17-[(ethoxycarbonyl)oxy]-11-hydroxy-21-[1-oxo-[4-(nitrooxy methyl)benzoxy]]pregna-1,4-diene-3,20-dione, prepared as described in example 2; • Prednicarbate that is the reference compound for the compound of example 2; The tests were performed according to the methods described by Carlson et al., Agents Actions 17:197-204, 1985, and Lucas et al., J Pharmacol Exp Ther 304:1172-1180, 2003.
Groups of 5-9 male Swiss mice of 27±5 g were used. Inflammation dermatitis was induced by applying 2 μg/ear of TPA (Tetradecanoyl Phorbol Acetate) dissolved with ethanol absolute on the surface of either the dorsal aspect of both ears (20 μL/ear).
15 min before the application of TPA, mice received topically 20 μL of a solution of test compounds (0.39 nM in ethanol) per site applied directly on the skin of the left ear and the vehicle (ethanol 100%) on right ear. Vehicle-Vehicle treated mice were included as negative control group. Compounds were tested at equimolecular doses.
Animals were sacrificed at 3 h or 5 h post TPA dose. Equal sections of both ears were punched out immediately after and weighed. The percentage of change of the weight of left ear versus the weight of right ear was calculated for each animal, and the percentage of inhibition of change in weight of treated animals versus the change in weight of non-treated animals (negative control) was measured.

[6] = 1 μg/ear topical 15 min before TPA
[7] = 3 nmol topical, 1 hour after benzalkonium application
[8] = 3 nmol topical, 2 hours after benzalkonium application
[9] = 3 nmol topical, 3 hours after benzalkonium application
[10] = 3 nmol topical, 4 hours after benzalkonium application
[11] = 0.48 μg/ear topical 15 min before TPA

| Compound | Area under the curve (change in flux of rolling leucocytes) [3] | Area under the curve (change in vessel diameter) [3] | Ear edema (left ears) value [4, 7] | Ear edema (left ears) value [4, 8] | Ear edema (left ears) value [4, 9] | Ear edema (left ears) value [4, 10] | % inhibition 3 hours post-treatment [5] [%] | % inhibition 5 hours post-treatment [5] [%] | other results |
| --- | --- | --- | --- | --- | --- | --- | --- | --- | --- |
| CC1(C)O[C@@H]2C[C@H]3[C@@H]4CCC5=CC(=O)C=C[C@]5(C)[C@@]4(F)[C@@H](O)C[C@]3(C)[C@]2(C(=O)CO)O1 [Triamcinolone acetonide, reference compound] | 376 ± 129 | 278 ± 78 | 0.037 ± 0.005 | 0.063 ± 0.010 | 0.041 ± 0.018 | 0.068 ± 0.022 | 14.90 | 12.19 | PGE2 [1, 6]: 43.0 ± 3.8 ng/mL; TNFalpha [2, 6]: 158.0 ± 24.6 pg/mL |
| CC1(C)O[C@@H]2C[C@H]3C4CCC5=CC(=O)C=C[C@]5(C)[C@@]4(F)[C@@H](O)C[C@]3(C)[C@]2(C(=O)COC(=O)c2ccc(CO[N+](=O)[O-])cc2)O1 (stereo partly drawn) [Example 1, (11β,16α)-9-fluoro-11-hydroxy-16,17-[1-methylethylidenebis(oxy)]-21-[1-oxo-[4-(nitrooxymethyl)benzoxy]]pregna-1,4-diene-3,20-dione] | 247 ± 35 | 114 ± 32 | 0.018 ± 0.004 | 0.042 ± 0.007 | 0.042 ± 0.010 | 0.070 ± 0.007 | 22.70 | 21.01 | PGE2 [1, 11]: 53.2 ± 4.5 ng/mL; Reduction of PGE2 level / inflammation, result in words ([1]; low dose versus higher dose of the parent compound): more effective in reducing the inflammation than the correspondent parent compound; TNFalpha [2, 11]: 149.5 ± 17.8 pg/mL; Inhibition of TNF-α release, result in words ([2]; versus prior art compound): inhibits the release of TNF-α in a higher potency than the prior art compound; Ear edema (left ears) value ([4]; 0.3 nmol topical, 1 hour after benzalkonium application): 0.026 ± 0.005; Ear edema (left ears) value ([4]; 0.3 nmol topical, 2 hours after benzalkonium application): 0.035 ± 0.008; Ear edema (left ears) value ([4]; 0.3 nmol topical, 3 hours after benzalkonium application): 0.053 ± 0.009; Ear edema (left ears) value ([4]; 0.3 nmol topical, 4 hours after benzalkonium application): 0.047 ± 0.007; Ear edema (left ears) value ([4]; 1 nmol topical, 1 hour after benzalkonium application): 0.020 ± 0.006; Ear edema (left ears) value ([4]; 1 nmol topical, 2 hours after benzalkonium application): 0.035 ± 0.008; Ear edema (left ears) value ([4]; 1 nmol topical, 3 hours after benzalkonium application): 0.057 ± 0.011; Ear edema (left ears) value ([4]; 1 nmol topical, 4 hours after benzalkonium application): 0.065 ± 0.010; Inhibition of ear edema, result in words ([4]; compared with triamcinolone acetonide, mainly at earlier times): dose-dependent effect in inhibiting ear edema with a better profile than triamcinolone acetonide |
| CCOC(=O)O[C@]1(C(=O)COC(=O)c2ccc(CO[N+](=O)[O-])cc2)CC[C@H]2[C@@H]3CCC4=CC(=O)C=C[C@]4(C)[C@H]3[C@@H](O)C[C@@]21C [Example 2, (11β)-17-[(ethoxycarbonyl)oxy]-11-hydroxy-21-[1-oxo-[4-(nitrooxymethyl)benzoxy]]pregna-1,4-diene-3,20-dione] | 300 ± 75 | 175 ± 70 | 0.025 ± 0.008 | 0.028 ± 0.009 | 0.040 ± 0.009 | 0.061 ± 0.007 | 33.26 |  |  |
| CCOC(=O)O[C@]1(C(=O)COC(=O)CC)CC[C@H]2[C@@H]3CCC4=CC(=O)C=C[C@]4(C)[C@H]3[C@@H](O)C[C@@]21C [Prednicarbate, reference compound] | 412 ± 112 | 282 ± 71 |  |  |  |  | 19.58 |  |  |
